Assay results from patent US11685716B2, “Plant growth inhibiting agent, and plant growth inhibiting method using same” (NATIONAL UNIVERSITY CORPORATION KUMAMOTO UNIVERSITY, priority 2017, dated 2023).

Key:
purple amaranth = test: Spray treatment to stems and leaves, killing weed index (Evaluation 10); assay type: in vivo; details: 2000 g active ingredient per hectare, two weeks later
Protocol: (§1) POA allyl phenyl ether (4.1 parts by weight), POE-POP glycol (1 part by weight), POE sorbitan laurate (0.8 parts by weight), glycerin (2.6 parts by weight), dimethylformamide (65.9 parts by weight), N-methylpyrrolidone (5.1 parts by weight), cyclohexanone (15.4 parts by weight), and aromatic hydrocarbon (5.1 parts by weight) were mixed and dissolved to prepare an emulsion. The compounds of the present invention (4 mg) were dissolved in this emulsion (100 μL) to prepare a test emulsion. In addition, POA means “polyoxyalkylene”, POE means “polyoxyethylene”, and POP means “polyoxypropylene.”
(§2) Four hundred μL of the above test emulsion was diluted with 7600 μL of water to use as a test spray liquid.
(§3) Further, 400 μL of the above test emulsion was diluted with 1600 μL of a 1% Tween20 aqueous solution to use as a spray liquid for a small amount spray test.
(§4) For a comparative spray liquid, 53 μL of a 30% pendimethalin emulsion (Gogosan emulsion: manufactured by BASF Japan) as a control pesticides was diluted with 7947 μL of water. Further, for a comparative spray liquid for a small amount spray test, 53 μL of the 30% pendimethalin emulsion was diluted with 1947 μL of water.
(§5) A 150 cm^2 pot was filled with a soil, seeds of each purple amaranth, Japanese bristlegrass, southern crabgrass, and velvet leaf were sown on the surface layer, lightly covered with a soil and grown in a greenhouse. When each plant grew to a plant height of 2 to 9 cm, the test spray liquid was sprayed to the stem and leaf parts with a small spraying machine such that an active ingredient amount was 2000 g per hectare and a sprayed liquid amount was 1000 L per hectare.
(§6) Similarly, the test spray liquid for a small amount spray test was sprayed to the stem and leaf parts with a small spraying machine such that an active ingredient amount was 2000 g per hectare and a sprayed liquid amount was 250 L per hectare.
(§7) Two weeks later, the above-ground grass weight in non-treated areas and the above-ground grass weight in treated areas, by the weed, were measured to calculate a killing weed rate by the following calculating formula.
(§8) (a) Calculating Formula of Weeding Rate Killing weed rate (%)=(above-ground grass weight in non-treated area−above-ground grass weight in treated area)/(above-ground grass weight in non-treated area)×100 (b) Killing Weed Indexes
(§9) The obtained killing weed rates were evaluated, such that a killing weed index was “10” when a killing weed rate is 100%, as “9” when a killing weed rate is 99% to 90%, “8” when a killing weed rate is 89% to 80%, “7” when a killing weed rate is 79% to 70%, “6” when a killing weed rate is 69% to 60%, “5” when a killing weed rate is 59% to 50%, “4” when a killing weed rate is 49% to 40%, “3” when a killing weed rate is 39% to 30%, “2” when a killing weed rate is 29% to 20%, “1” when a killing weed rate is 19% to 10%, and “0” when a killing weed rate is 9% to 0%.

Japanese bristlegrass = test: as above; assay type: in vivo; details: 2000 g active ingredient per hectare, two weeks later
Protocol: as §1, §2, §3, §4, §5, §6, §7, §8, §9

velvet leaf [1] = test: as above; assay type: in vivo; details: 2000 g active ingredient per hectare, two weeks later
Protocol: as §1, §2, §3, §4, §5, §6, §7, §8, §9

southern crabgrass = test: as above; assay type: in vivo; details: 2000 g active ingredient per hectare, two weeks later
Protocol: as §1, §2, §3, §4, §5, §6, §7, §8, §9

Ragweed = test: Seed treatment, plant growth inhibition index (Evaluation 11); assay type: in vivo; parameters: key: 0: No effect; 1: Growth of the root part was inhibited 50% or less compared with non-treated area.; 2: Growth of the root part was inhibited 50% or more compared with non-treated area.; 3: Growth of the root part was substantially inhibited.; 4: Germination was inhibited
Protocol: (§10) The compound of the present invention (2 mg) was dissolved in a 1.5% Tween dimethylformamide solution (100 μL) to use as a test chemical solution.
(§11) Eight mL of sterilized water was poured to a cherry cup (100Φ×45 mm) lined with a filter paper, subsequently 81.1 μL of the sterilized water was removed, and 81.1 μL of the test chemical solution was added such that a final concentration of the compound was 800 μM.
(§12) Further, cherry cups were similarly prepared such that a final concentration of the compound was 200 μM.
(§13) Seeds (Japanese millet: 3 grains, velvet leaf: 6 grains, Ragweed: 8 grains, morning glory: 2 grains) were planted on the filter paper in the cherry cups, followed by growing the plants in a thermostatic chamber at 25° C. under a light-dark cycle in which a light period is 12 hours and a dark period is 12 hours for 6 days.
(§14) In addition, with regards to the compound (9a) and the compound (9b), the plants were tested for 7 days.
(§15) Plant growth inhibition effects of the compounds were evaluated by conversion to indexes according to the following investigation criteria.

Japanese millet = test: as above; assay type: in vivo; parameters: key: 0: No effect; 1: Growth of the root part was inhibited 50% or less compared with non-treated area.; 2: Growth of the root part was inhibited 50% or more compared with non-treated area.; 3: Growth of the root part was substantially inhibited.; 4: Germination was inhibited
Protocol: as §10, §11, §12, §13, §14, §15

velvet leaf [2] = test: as above; assay type: in vivo; parameters: key: 0: No effect; 1: Growth of the root part was inhibited 50% or less compared with non-treated area.; 2: Growth of the root part was inhibited 50% or more compared with non-treated area.; 3: Growth of the root part was substantially inhibited.; 4: Germination was inhibited
Protocol: as §10, §11, §12, §13, §14, §15

morning glory = test: as above; assay type: in vivo; parameters: key: 0: No effect; 1: Growth of the root part was inhibited 50% or less compared with non-treated area.; 2: Growth of the root part was inhibited 50% or more compared with non-treated area.; 3: Growth of the root part was substantially inhibited.; 4: Germination was inhibited
Protocol: as §10, §11, §12, §13, §14, §15

thale cress = test: Plant growth inhibition index, thale cress on agar medium in test tube (Evaluation 8, 9); assay type: in vivo, thale cress (Col-0, wild-type strain); parameters: key: 0: No effect; 1: Growth of the root part was inhibited 50% or less compared with non-treated area.; 2: Growth of the root part was inhibited 50% or more compared with non-treated area.; 3: Growth of the root part was substantially inhibited.; 4: Germination was inhibited; details: for Index: Concentration 200 μM, 8 days (Evaluation 9, Table 2)
Protocol: 0.44% (w/v) Mixed salts for Murashige and Skoog medium (SIGMA), 1% (w/v) sucrose, and 0.05% (w/v) MES were mixed, and pH of the solution was adjusted to pH 5.7 with potassium hydroxide. 1.5% (w/v) Agar was added to the mixture, which was sterilized at 120° C. in an autoclave for 20 minutes. The test compound and dimethylformamide containing 1.5% of polyoxyethylenesorbitan monolaurate for a control experiment, were added at this stage and blended. In addition, the compound was used by adjusting an addition concentration to 200 μM. Four ml each of the medium was dispensed in sterile glass test tube ([…] RIKA GLASS CO., LTD.) to prepare agar medium.
As a plant material, Col-0, which is a wild-type strain of thale cress, was used.
Seeds, after their surfaces were sterilized, were planted on the agar medium, and the growth of the plant was carried out in a plant incubator (CFH-405) under the conditions of an illuminance of 3 at 23° C. with constant light. The plants on the agar medium were grown for 8 days in the chamber.
The plant growth inhibition effect of the compounds was evaluated by conversion to indexes according to the following investigation criteria.

[3] = sprayed liquid amount 1000 L/ha
[4] = 200 μM, 6 days (9a, 9b: 7 days)

Row | SMILES | killing weed index, Purple amaranth (purple amaranth; sprayed liquid amount 250 L/ha) | killing weed index, Purple amaranth (purple amaranth; [3]) | killing weed index, Japanese bristlegrass (Japanese bristlegrass; sprayed liquid amount 250 L/ha) | killing weed index, Japanese bristlegrass (Japanese bristlegrass; [3]) | killing weed index, Velvet leaf (velvet leaf [1]; sprayed liquid amount 250 L/ha) | killing weed index, Velvet leaf (velvet leaf [1]; [3]) | killing weed index, Southern crabgrass (southern crabgrass; sprayed liquid amount 250 L/ha) | killing weed index, Southern crabgrass (southern crabgrass; [3]) | plant growth inhibition index, Ragweed (Ragweed; [4]) | plant growth inhibition index, Ragweed (Ragweed; 800 μM, 6 days) | plant growth inhibition index, Japanese millet (Japanese millet; [4]) | plant growth inhibition index, Japanese millet (Japanese millet; 800 μM, 6 days) | plant growth inhibition index, Velvet leaf (velvet leaf [2]; [4]) | plant growth inhibition index, Velvet leaf (velvet leaf [2]; 800 μM, 6 days) | plant growth inhibition index, Morning glory (morning glory; [4]) | plant growth inhibition index, Morning glory (morning glory; 800 μM, 6 days) | index on the plant growth inhibition effect (thale cress; 200 μM, 8 days (Evaluation 8)) | Index (thale cress)
1 | CCCCCCCCCOn1cccc1C(=O)O [Compound 8b] | 8 (“8” when a killing weed rate is 89% to 80%) | 3 (“3” when a killing weed rate is 39% to 30%) | 5 (“5” when a killing weed rate is 59% to 50%) | 5 (“5” when a killing weed rate is 59% to 50%) | 6 (“6” when a killing weed rate is 69% to 60%) | 0 (“0” when a killing weed rate is 9% to 0%) | 2 (“2” when a killing weed rate is 29% to 20%) | 4 (“4” when a killing weed rate is 49% to 40%) | 3 (Growth of the stem and leave parts was inhibited 30% or more compared with non-treated area, or growth of the only root part was inhibited 60% or more compared with non-treated area.) | 9 (Growth of the stem and leave parts was inhibited 90% or more compared with non-treated area.) | 3 (Growth of the stem and leave parts was inhibited 30% or more compared with non-treated area, or growth of the only root part was inhibited 60% or more compared with non-treated area.) | 10 | 0 | 8 (Growth of the stem and leave parts was inhibited 80% or more compared with non-treated area.) | 3 (Growth of the stem and leave parts was inhibited 30% or more compared with non-treated area, or growth of the only root part was inhibited 60% or more compared with non-treated area.) | 8 (Growth of the stem and leave parts was inhibited 80% or more compared with non-treated area.) | 4 | –
2 | CCCCCOn1cc(-c2ccccc2)cc1C(=O)O [Compound 9a, 1-Pentyloxy-4-phenyl-1H-pyrrole-2-carboxylic acid] | 8 (“8” when a killing weed rate is 89% to 80%) | – | 3 (“3” when a killing weed rate is 39% to 30%) | – | 3 (“3” when a killing weed rate is 39% to 30%) | – | 2 (“2” when a killing weed rate is 29% to 20%) | – | 0 | – | 3 (Growth of the stem and leave parts was inhibited 30% or more compared with non-treated area, or growth of the only root part was inhibited 60% or more compared with non-treated area.) | – | 0 | – | 0 | – | – | 4
3 | CCCCCCCCCOn1cccc1C(=O)NCc1ccccc1 [Compound 9e] | 0 (“0” when a killing weed rate is 9% to 0%) | 0 (“0” when a killing weed rate is 9% to 0%) | 2 (“2” when a killing weed rate is 29% to 20%) | 2 (“2” when a killing weed rate is 29% to 20%) | 2 (“2” when a killing weed rate is 29% to 20%) | 0 (“0” when a killing weed rate is 9% to 0%) | 2 (“2” when a killing weed rate is 29% to 20%) | 2 (“2” when a killing weed rate is 29% to 20%) | 0 | – | 3 (Growth of the stem and leave parts was inhibited 30% or more compared with non-treated area, or growth of the only root part was inhibited 60% or more compared with non-treated area.) | – | 0 | – | 0 | – | – | 2 (Growth of the root part was inhibited 50% or more compared with non-treated area.)
4 | CCCCCCCCCOn1cccc1C(=O)NCC(F)(F)F [Compound 9f] | 0 (“0” when a killing weed rate is 9% to 0%) | 0 (“0” when a killing weed rate is 9% to 0%) | 2 (“2” when a killing weed rate is 29% to 20%) | 1 (“1” when a killing weed rate is 19% to 10%) | 0 (“0” when a killing weed rate is 9% to 0%) | 0 (“0” when a killing weed rate is 9% to 0%) | 2 (“2” when a killing weed rate is 29% to 20%) | 3 (“3” when a killing weed rate is 39% to 30%) | 5 (Growth of the stem and leave parts was inhibited 50% or more compared with non-treated area, or growth of the only root part was inhibited 100% or more compared with non-treated area.) | – | 3 (Growth of the stem and leave parts was inhibited 30% or more compared with non-treated area, or growth of the only root part was inhibited 60% or more compared with non-treated area.) | – | 0 | – | 3 (Growth of the stem and leave parts was inhibited 30% or more compared with non-treated area, or growth of the only root part was inhibited 60% or more compared with non-treated area.) | – | – | 2 (Growth of the root part was inhibited 50% or more compared with non-treated area.)
